Results reported in patent US5134124A, “Use of a statin derivative in the treatment of eye complaints” (Sanofi, priority 1989, dated 1992).

Assays:
[1] = biological target: T1, human plasma renin (Homo sapiens, UniProt P00797); assay: Inhibition of human plasma renin activity at pH 7.4; type: biochemical; settings: method of EP 211 744, read-out: 50% inhibitory concentration (IC50), inhibition of human plasma renin activity
T1 construct: from tissue; host or cells: human plasma
T1 sequence (P00797 67-406): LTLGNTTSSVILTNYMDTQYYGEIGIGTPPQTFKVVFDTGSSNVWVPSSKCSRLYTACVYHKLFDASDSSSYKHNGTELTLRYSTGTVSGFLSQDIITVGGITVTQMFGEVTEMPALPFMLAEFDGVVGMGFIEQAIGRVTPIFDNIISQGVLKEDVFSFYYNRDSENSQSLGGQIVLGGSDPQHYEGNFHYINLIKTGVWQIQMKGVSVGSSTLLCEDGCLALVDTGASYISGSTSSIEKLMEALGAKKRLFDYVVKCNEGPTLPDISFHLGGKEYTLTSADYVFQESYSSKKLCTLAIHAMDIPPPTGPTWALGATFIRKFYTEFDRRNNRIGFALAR
Protocol: The inhibition of human plasma renin activity at pH 7.4 was measured for this compound (I) according to the method described in patent application EP 211 744.

[2] = tested on: intraocular pressure in rabbits; assay: Effect on the intraocular pressure in rabbits after increase by intravenous injection of a 5% glucose solution; type: in vivo; settings: eye lotion, pressure increased by intravenous injection of a 5% glucose solution

IC50 [1]: 1 pM
SMILES: CCC(C)C(NC(=O)CC(O)C(CC1CCCCC1)NC(=O)C(Cc1cnc[nH]1)NC(=O)C(Cc1ccccc1)NC(=O)CCc1cccnc1)C(=O)NC(O)C(C)CO (centres unmarked) [compound (I), N-(3-pyridylpropionyl)phenylalanylhistidyl(cyclohexyl)statyl-N-(1,3-dihydroxy-2-methylpropyl)isoleucinamide]
effect on the intraocular pressure [2]: enables the intraocular pressure to return rapidly to its normal value
